According to US20210085801A1, “A[…] COPOLYMERS, […], AND METHODS FOR TREATING OR […] FAILURE” (CARDIOL THERAPEUTICS INC., priority 2017, published 2021):

Tests used:
[1] = In vitro release study (dialysis bag, 4% BSA); assay type: physicochemical; conditions: dialysis bag in 300 mL 4% BSA, 37° C.
Procedure: An in vitro release study was performed to determine the in vitro release characteristic of free CBD and the above micelle encapsulated CBD formulations (Micellar CBD (DP 23) and d Micellar CBD (DP 15)).
Each of three formulations shown in Table 4 having equal concentrations of CBD were placed in separate Spectra/Por dialysis bags (molecular weight cut-off=12,000-14,000 g mol-1). The dialysis bags were sealed with clips and placed in a beaker with 300 mL 4% bovine serum albumin (BSA), then in a 37° C. shaker. At time 0 and 24 hours, the volume within each bag was measured, and a sample of each solution was taken from inside the dialysis bag and quantified by HPLC. The protocol that was used is described in Aliabadi et al, Journal of Controlled Release (2005) 104 (2), 301-311, which protocol is incorporated herein by reference.

[2] = Pharmacokinetic animal study, subcutaneous injection; conditions: SC, single dose 10 mg/kg, rats, plasma CBD
Procedure: Cannulated adult male Sprague-Dawley rats were used for the pharmacokinetic experiments.
Rats were divided into 2 groups (n=4/group). Groups 1 and 2 received CBD either encapsulated in PEO-PBCL23 (referred to herein as Micellar CBD (DP 23)) or in free form (CBD dissolved in polyethylene glycol 400 (also referred to as PEG 400)). The administration was by way of subcutaneous injection in the right flank. A single dose of 10 mg/kg was administered to the rats of all groups.
Serial blood samples (200 μL) were collected using jugular vein catheters prior to CBD administration and at 0.25, 0.5, 0.75, 1, 2, 4, 6, 12 and 24, 48 and 72 hours post CBD administration. Plasma was separated (by using a centrifuge) from the samples and kept at −20° C. until it was analyzed for drug content.
100 μL of plasma samples were analyzed for CBD content as follows. The samples were spiked with internal standard (CBD d3 1 μg/mL) and 400 μL of cold acetonitrile was added to each sample. The mixture was vortexed for 1 minute and then 400 μL of water was added and the resulting mixture was further vortexed for 1 minute. Then 4 mL n-Hexane was added and the resulting mixture further vortexed for 5 minutes. The samples were centrifuged at 1160×g for 15 minutes and the organic phase layers were separated and transferred to clean tubes and evaporated to dryness. The residue was then analyzed for CBD content using a liquid chromatography-mass spectrometry (LC-MS) method involving the use of a Waters Quattro Micro triple quadrupole mass spectrometer. The residue samples were ran in MRM mode using the 315 to 193 transition for CBD, 318 to 196 for Cannabidiol-D3 solution and 311 to 223 for Cannabinol (CBN). A C18 Agilent Poroshell 120 EC column (2.1×50 mm; 2.7 μm particles) was used. The mobile phase consisted of 0.1% formic acid in HPLC-grade water (Solution A) and 0.1% formic acid in HPLC-grade acetonitrile (Solution B). A gradient elution was programmed to co33mmence with 40% Solution B for post-injection followed by gradual increase in 3 min. of Solution B to 95%. […] The flow rate was 0.3 mL/min. and 2 μL was injected. The lowest limit of quantification was set at 10 ng/mL.
The total amount of CBD that entered the bloodstream (AUC0-t; 72 h) was calculated using the trapezoidal rule from 0 to the last measured plasma concentration (Clast). The terminal elimination rate constant (β) was estimated using the linear least square regression of the log-linear phase of the concentration-time. Cmax and Tmax were the highest observed concentration and corresponding sampling time point.

Question: With `C=C(C)[C@@H]1CCC(C)=C[C@H]1c1c(O)cc(CCCCC)cc1O` [Free-CBD, Cannabidiol] as the compound, how does the “% CBD released after 24 hours” value [1] read?
Answer: rapid release

Question: What about the “% CBD released after 24 hours” value ([1]; listed as Free-CBD dissolved in acetonitrile) of the same compound?
Answer: 70.65%

Question: And the AUC0-6 [2]?
Answer: 209.45 ± 210.52 ng·h/mL

Question: What about the AUC0-72 h [2] of the same compound?
Answer: 687.12 ± 217.39 ng·h/mL

Question: What about the Cmax [2] of the same compound?
Answer: 94 ± 86.27 ng/mL

Question: And the tmax [2]?
Answer: 9 ± 10.13 h
